In US12509444B2, “Compounds and methods for CD73 modulation and indications therefor” (Plexxikon Inc., priority 2019, dated 2025):
pIC50: −log10 of the molar value.

Tests used:
[1] = target: T1, Human CD73 (amino acid residues 27-549) (Homo sapiens, UniProt P21589); test: CD73 enzymatic assay (luciferase-based indirect assay, CellTiter-Glo); assay type: biochemical; details: 0.4 nM CD73, 150 μM AMP, 1 hour at room temperature
T1 construct: Human CD73 (amino acid residues 27-549); His tag (N); made in house; host or cells: E. coli
T1 sequence (P21589 27-549): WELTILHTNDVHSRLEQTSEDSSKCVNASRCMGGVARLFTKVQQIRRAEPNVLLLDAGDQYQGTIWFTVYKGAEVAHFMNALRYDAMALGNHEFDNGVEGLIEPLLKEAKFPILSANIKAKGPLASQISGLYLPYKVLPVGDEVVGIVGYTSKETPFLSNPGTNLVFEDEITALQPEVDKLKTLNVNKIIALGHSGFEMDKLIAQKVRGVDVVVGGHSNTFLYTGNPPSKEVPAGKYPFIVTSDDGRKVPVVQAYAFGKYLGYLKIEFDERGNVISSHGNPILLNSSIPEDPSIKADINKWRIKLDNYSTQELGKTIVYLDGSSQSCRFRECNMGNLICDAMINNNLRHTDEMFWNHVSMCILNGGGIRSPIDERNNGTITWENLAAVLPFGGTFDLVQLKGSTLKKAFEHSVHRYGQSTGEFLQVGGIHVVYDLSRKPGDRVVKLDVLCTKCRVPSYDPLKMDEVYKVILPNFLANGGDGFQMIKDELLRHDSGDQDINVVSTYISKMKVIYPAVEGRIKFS
Procedure, shortened: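 His-tagged human CD73 (27-549) from E. coli, 0.4 nM, with 150 μM AMP in 50 mM HEPES pH 7.4, 0.01% Tween 20; 1 h at room temperature. AMP remaining read by CellTiter-Glo 2.0 luminescence with 1 μM final ATP after 30 min. IC50 from nonlinear regression of % inhibition.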

human CD73 = target: T2, human CD73 (Homo sapiens, UniProt P21589); test: Inhibitor activity against CD73 in cell based assay (CD73 expressing CHO-K1 cells); details: CHO-K1 cells expressing human CD73, 150 μM AMP, 4 hours of incubation; read-out: CHO-K1 CELL VARIANT: CD73 IC50
T2 construct: expressed in transfected cells
T2 sequence (P21589 27-549): T1 sequence (P21589 27-549)
Procedure, shortened: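 Stably transfected CHO-K1 cells expressing human CD73 (1×10^4/well) incubated 4 h with compound (8-point 1:3 titration, top 10 μM final, 0.2% DMSO) and 150 μM AMP. Residual AMP in supernatant measured by CellTiter-Glo luminescence with 1 μM ATP after 30 min at room temperature; IC50 by nonlinear regression of percent inhibition vs high/low controls.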

pIC50 [1] | pIC50 (human CD73) | Structure (SMILES)
5.00 to 9.00 | 5.00 to 9.00 | Cn1ncc(N2CC[C@@H](OC(=O)N[C@H]3CC[C@H](NS(=O)(=O)c4ccc(F)cc4)CC3)C2)c(Cl)c1=O [P-0216, (R)-1-(5-chloro-1-methyl-6-oxo-1,6-dihydropyridazin-4-yl)pyrrolidin-3-yl ((1r,4R)-4-((4-fluorophenyl)sulfonamido)cyclohexyl)carbamate]
5.00 to 9.00 | 5.00 to 9.00 | Cn1ncc(N2CC[C@@H](OC(=O)N[C@H]3CC[C@H](NC(=O)c4ccccc4)CC3)C2)c(Cl)c1=O [P-0217, (R)-1-(5-chloro-1-methyl-6-oxo-1,6-dihydropyridazin-4-yl)pyrrolidin-3-yl ((1r,4R)-4-benzamidocyclohexyl) carbamate]
5.00 to 9.00 | 5.00 to 9.00 | Cn1ncc(N2CC[C@@H](OC(=O)N[C@H]3CC[C@H](NS(=O)(=O)NC4CCCC4)CC3)C2)c(Cl)c1=O [P-0218, (R)-1-(5-chloro-1-methyl-6-oxo-1,6-dihydropyridazin-4-yl)pyrrolidin-3-yl ((1r,4R)-4-((N-cyclopentylsulfamoyl)amino)cyclohexyl)carbamate]
5.00 to 9.00 | 5.00 to 9.00 | CCn1cc(S(=O)(=O)N[C@H]2CC[C@H](NC(=O)O[C@@H]3CCN(c4cnn(C)c(=O)c4Cl)C3)CC2)cn1 [P-0226, (R)-1-(5-chloro-1-methyl-6-oxo-1,6-dihydropyridazin-4-yl)pyrrolidin-3-yl ((1r,4R)-4-((1-ethyl-1H-pyrazole)-4-sulfonamido)cyclohexyl) carbamate]
5.00 to 9.00 | 5.00 to 9.00 | Cn1ncc(N2CC[C@@H](OC(=O)N[C@H]3CC[C@H](NS(=O)(=O)C4CC4)CC3)C2)c(Cl)c1=O [P-0227, (R)-1-(5-chloro-1-methyl-6-oxo-1,6-dihydropyridazin-4-yl)pyrrolidin-3-yl ((1r,4R)-4-(cyclopropanesulfonamido)cyclohexyl)carbamate]
5.00 to 9.00 | 5.00 to 9.00 | Cn1ncc(N2CC[C@@H](OC(=O)N[C@H]3CC[C@H](NS(=O)(=O)C4CCCC4)CC3)C2)c(Cl)c1=O [P-0228, (R)-1-(5-chloro-1-methyl-6-oxo-1,6-dihydropyridazin-4-yl)pyrrolidin-3-yl ((1r,4R)-4-(cyclopentanesulfonamido)cyclohexyl)carbamate]
5.00 to 9.00 | 5.00 to 9.00 | C[C@]1(O)CC[C@H](NC(=O)O[C@@H]2CCN(c3cn[nH]c(=O)c3Cl)C2)CC1 [P-0229, (R)-1-(5-chloro-6-oxo-1,6-dihydropyridazin-4-yl)pyrrolidin-3-yl ((1r,4R)-4-hydroxy-4-methylcyclohexyl)carbamate]
5.00 to 9.00 | 5.00 to 9.00 | CO[C@H]1CC[C@H](NC(=O)O[C@@H]2CCN(c3cn[nH]c(=O)c3Cl)C2)CC1 [P-0230, (R)-1-(5-chloro-6-oxo-1,6-dihydropyridazin-4-yl)pyrrolidin-3-yl ((1r,4R)-4-methoxycyclohexyl)carbamate]
5.00 to 9.00 | 5.00 to 9.00 | CO[C@H]1CC[C@@H](NC(=O)O[C@@H]2CCN(c3cn[nH]c(=O)c3Cl)C2)CC1 [P-0231, (R)-1-(5-chloro-6-oxo-1,6-dihydropyridazin-4-yl)pyrrolidin-3-yl ((1s,4S)-4-methoxycyclohexyl)carbamate]
5.00 to 9.00 | 5.00 to 9.00 | O=C(NCC1CCCCC1)O[C@@H]1CCN(c2cn[nH]c(=O)c2Cl)C1 [P-0233, (R)-1-(5-chloro-6-oxo-1,6-dihydropyridazin-4-yl)pyrrolidin-3-yl (cyclohexylmethyl)carbamate]
5.00 to 9.00 | 5.00 to 9.00 | O=C(NCCC1CCCC1)O[C@@H]1CCN(c2cn[nH]c(=O)c2Cl)C1 [P-0234, (R)-1-(5-chloro-6-oxo-1,6-dihydropyridazin-4-yl)pyrrolidin-3-yl (2-cyclopentylethyl)carbamate]

Continued, molecule first:

Structure (SMILES) | pIC50 [1] | pIC50 (human CD73)
O=C(Nc1ccc(F)cc1)NC1CC2(C1)CC(NC(=O)O[C@@H]1CCN(c3cn[nH]c(=O)c3Cl)C1)C2 (stereo partly drawn) [P-0214, (R)-1-(5-chloro-6-oxo-1,6-dihydropyridazin-4-yl)pyrrolidin-3-yl (6-(3-(4-fluorophenyl)ureido)spiro[3.3]heptan-2-yl)carbamate] | 5.00 to 9.00 | 5.00 to 9.00
CCC(CC)NC(=O)O[C@@H]1CCN(c2cn[nH]c(=O)c2Cl)C1 [P-0215, (R)-1-(5-chloro-6-oxo-1,6-dihydropyridazin-4-yl)pyrrolidin-3-yl pentan-3-ylcarbamate] | 5.00 to 9.00 | 5.00 to 9.00
CC(C)(C)c1nnc(NC(=O)O[C@@H]2CCN(c3cn[nH]c(=O)c3Cl)C2)s1 [P-0219, (R)-1-(5-chloro-6-oxo-1,6-dihydropyridazin-4-yl)pyrrolidin-3-yl (5-(tert-butyl)-1,3,4-thiadiazol-2-yl)carbamate] | 4.00 to 5.00 | 4.00 to 5.00
Cc1cc(NC(=O)O[C@@H]2CCN(c3cn[nH]c(=O)c3Cl)C2)no1 [P-0220, (R)-1-(5-chloro-6-oxo-1,6-dihydropyridazin-4-yl)pyrrolidin-3-yl (5-methylisoxazol-3-yl)carbamate] | 5.00 to 9.00 | 5.00 to 9.00
Cc1nc(NC(=O)O[C@@H]2CCN(c3cn[nH]c(=O)c3Cl)C2)sc1C [P-0221, (R)-1-(5-chloro-6-oxo-1,6-dihydropyridazin-4-yl)pyrrolidin-3-yl (4,5-dimethylthiazol-2-yl)carbamate] | 4.00 to 5.00 | 4.00 to 5.00
Cn1cc(NC(=O)O[C@@H]2CCN(c3cn[nH]c(=O)c3Cl)C2)cn1 [P-0222, (R)-1-(5-chloro-6-oxo-1,6-dihydropyridazin-4-yl)pyrrolidin-3-yl (1-methyl-1H-pyrazol-4-yl)carbamate] | 5.00 to 9.00 | 4.00 to 5.00
O=C(NCc1cc(C2CC2)[nH]n1)O[C@@H]1CCN(c2cn[nH]c(=O)c2Cl)C1 [P-0223, (R)-1-(5-chloro-6-oxo-1,6-dihydropyridazin-4-yl)pyrrolidin-3-yl ((5-cyclopropyl-1H-pyrazol-3-yl)methyl)carbamate] | 4.00 to 5.00 | 4.00 to 5.00
O=C(Nc1cnn2cccnc12)O[C@@H]1CCN(c2cn[nH]c(=O)c2Cl)C1 [P-0224, (R)-1-(5-chloro-6-oxo-1,6-dihydropyridazin-4-yl)pyrrolidin-3-yl pyrazolo[1,5-a]pyrimidin-3-ylcarbamate] | 5.00 to 9.00 | 4.00 to 5.00
O=C(Nc1ncco1)O[C@@H]1CCN(c2cn[nH]c(=O)c2Cl)C1 [P-0225, (R)-1-(5-chloro-6-oxo-1,6-dihydropyridazin-4-yl)pyrrolidin-3-yl oxazol-2-ylcarbamate] | 5.00 to 9.00 | 4.00 to 5.00
O=C(NCC1CCS(=O)(=O)CC1)O[C@@H]1CCN(c2cn[nH]c(=O)c2Cl)C1 [P-0232, (R)-1-(5-chloro-6-oxo-1,6-dihydropyridazin-4-yl)pyrrolidin-3-yl ((1,1-dioxidotetrahydro-2H-thiopyran-4-yl)methyl)carbamate] | 5.00 to 9.00 | 5.00 to 9.00
O=C(NCCCO)O[C@@H]1CCN(c2cn[nH]c(=O)c2Cl)C1 [P-0235, (R)-1-(5-chloro-6-oxo-1,6-dihydropyridazin-4-yl)pyrrolidin-3-yl (3-hydroxypropyl)carbamate] | 5.00 to 9.00 | 5.00 to 9.00
O=C(NCC1CCOCC1)O[C@@H]1CCN(c2cn[nH]c(=O)c2Cl)C1 [P-0236, (R)-1-(5-chloro-6-oxo-1,6-dihydropyridazin-4-yl)pyrrolidin-3-yl ((tetrahydro-2H-pyran-4-yl)methyl)carbamate] | 5.00 to 9.00 | 5.00 to 9.00
